Measurements taken from US11793880B2, “Conjugates of quaternized tubulysin compounds” (Seagen Inc., priority 2015, dated 2023).

Columns and labels:
[1] = system: Karpas299, L540cy, L428, DEL, DEL/BVR cell lines; assay: In vitro assays - tubulysin ADCs, statements across the cell line panel; format: cell-based; conditions: Table 5; cAC10 ADCs 8 drugs/mAb, quaternized tubulysin M
Method: (§1) In vitro assays. Cells cultured in log-phase growth were seeded for 24 h in 96-well plates containing 150 μL RPMI 1640 supplemented with 20% FBS. Serial dilutions of antibody-drug conjugates in cell culture media were prepared at 4× working concentrations; 50 μL of each dilution was added to the 96-well plates. […] After 96 h, growth inhibition was assessed by CellTiter-Glo® (Promega, Madison, WI) and luminescence was measured on a plate reader.
(§2) In vitro assays—tubulysin ADCs. ADCs were prepared by t Ell reduction of interchain disulfides to reveal 8-conjugatable cysteines/antibody that were alkylated through Michael addition with the maleimide-containing Drug Linker compounds. […] conjugates hearing quaternized tubulysin ethers with and without a PEG12 side-chain were compared to their tubulysin M analogs.
(§3) Several hydrophilic linker constructs incorporating quaternized tubulysin M were prepared and evaluated in vitro; the results are shown in Table 5. The data (IC50 values in ng/mL) indicate that Conjugates prepared from Drug Linker compounds having quaternized tubulysin M linked via a hydrophilic ValGlu dipeptide with (95) or without (91) a PEG12 side chain, or linked via a hydrophilic glucuronide (82) provide ADCs that are equipotent to the ValAla comparator (15).

L428, MDR + HL = conditions: Table 5; cAC10 ADCs 8 drugs/mAb, MDPR-Linker-TubM
Method: as §1, §2, §3

DEL, ALCL = conditions: Table 5; cAC10 ADCs 8 drugs/mAb, MDPR-Linker-TubM
Method: as §1, §2, §3

L540cy, HL = conditions: Table 5; cAC10 ADCs 8 drugs/mAb, MDPR-Linker-TubM
Method: as §1, §2, §3

DEL/BVR, MDR + ALCL = conditions: Table 5; cAC10 ADCs 8 drugs/mAb, MDPR-Linker-TubM
Method: as §1, §2, §3

[2] = system: antigen-negative Hep3B hepatocellular carcinoma cells; conditions: Table 5, cAC10 ADCs 8 drugs/mAb, MDPR-Linker-TubM
Method: as §1, §3

| SMILES | potency relative to the ValAla comparator (15), in words [1] | IC50, L428, MDR + HL (L428, MDR + HL) | IC50, DEL, ALCL (DEL, ALCL) | IC50, L540cy, HL (L540cy, HL) | IC50, DEL/BVR, MDR + ALCL (DEL/BVR, MDR + ALCL) | IC50, Hep3B CD30- HCC [2] |
| --- | --- | --- | --- | --- | --- | --- |
| CC[C@H](C)[C@H](NC(=O)[C@H]1CCCC[N+]1(C)Cc1ccc(NC(=O)[C@H](CCC(=O)O)NC(=O)[C@@H](NC(=O)[C@H](CN)N2C(=O)C=CC2=O)C(C)C)cc1)C(=O)N(C)[C@H](C[C@@H](OC(C)=O)c1nc(C(=O)N[C@@H](Cc2ccccc2)C[C@H](C)C(=O)O)cs1)C(C)C (stereo partly drawn) [Compound 91, (2R)-2-(((2S,3S)-1-(((1R,3R)-1-acetoxy-1-(4-(((2R,4S)-4-carboxy-1-phenylpentan-2-yl)carbamoyl)thiazol-2-yl)-4-methylpentan-3-yl)(methyl)amino)-3-methyl-1-oxopentan-2-yl)carbamoyl)-1-(4-((S)-2-((S)-2-((S)-3-amino-24 (2,5-dioxo-2,5-dihydro-1H-pyrrol-1-yl)propanamido)-3-methylbutanamido)-4-carboxybutanamido)benzyl)-1-methylpiperidin-1-ium] | equipotent | 0.3 ng/mL | 0.1 ng/mL | 1 ng/mL | 2 ng/mL | >1000 ng/mL |
| CC[C@H](C)[C@H](NC(=O)[C@H]1CCCC[N+]1(C)Cc1ccc(NC(=O)[C@H](CCC(=O)O)NC(=O)[C@@H](NC(=O)[C@H](CCCCNC(=O)CCOCCOCCOCCOCCOCCOCCOCCOCCOCCOCCOCCOC)NC(=O)[C@H](CN)N2C(=O)C=CC2=O)C(C)C)cc1)C(=O)N(C)[C@H](C[C@@H](OC(C)=O)c1nc(C(=O)N[C@@H](Cc2ccccc2)C[C@H](C)C(=O)O)cs1)C(C)C (stereo partly drawn) [Compound 95] | equipotent | 0.2 ng/mL | 0.1 ng/mL | 0.8 ng/mL | 2 ng/mL | >1000 ng/mL |
